Assay results as given in patent US8288379B2, “Thia-triaza-cyclopentazulenes” (Boehringer Ingelheim International GmbH, priority 2009, dated 2012).

Key:
[1] = molecular target: T1, FRAP1 (mTOR) kinase (Homo sapiens, UniProt P42345); experiment: Inhibition of mTOR-induced p-4E-BP1 phosphorylation (TR-FRET mTOR Activity Kit; Invitrogen); type: biochemical; conditions: 400 nM GFP-4E-BP1 substrate, ~150 ng/mL mTOR, one hour at room temperature
T1 construct: purchased Invitrogen PV4753
How it was run: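 LanthaScreen TR-FRET: mTOR with GFP-4E-BP1 substrate in HEPES pH 7.5 buffer with 10 mM MnCl2, compound preincubated 30 min at RT, then ATP added and reacted 1 h at 20-25 °C. Stopped with EDTA plus Tb-anti-p4E-BP1 (pThr46), 1 h; GFP/Tb emission ratio over a 16-point curve, sigmoidal fit for IC50.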

[2] = test system: PC-3 cells; experiment: Inhibition of proliferation: CyQuant PC-3; type: cell-based; conditions: 72 h; PC-3 human prostate carcinoma cells, incubated with compounds for 3 days, CyQuant NF DNA dye
How it was run: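 PC-3 proliferation read by CyQuant NF: DNA-binding dye with membrane permeabilization reagent added after medium removal, 30-60 min incubation, fluorescence at Ex 485/Em 530 nm. Proliferation judged from cell counts of drug-treated versus untreated controls.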

T1 sequence (P42345 1360-2549 limits assumed): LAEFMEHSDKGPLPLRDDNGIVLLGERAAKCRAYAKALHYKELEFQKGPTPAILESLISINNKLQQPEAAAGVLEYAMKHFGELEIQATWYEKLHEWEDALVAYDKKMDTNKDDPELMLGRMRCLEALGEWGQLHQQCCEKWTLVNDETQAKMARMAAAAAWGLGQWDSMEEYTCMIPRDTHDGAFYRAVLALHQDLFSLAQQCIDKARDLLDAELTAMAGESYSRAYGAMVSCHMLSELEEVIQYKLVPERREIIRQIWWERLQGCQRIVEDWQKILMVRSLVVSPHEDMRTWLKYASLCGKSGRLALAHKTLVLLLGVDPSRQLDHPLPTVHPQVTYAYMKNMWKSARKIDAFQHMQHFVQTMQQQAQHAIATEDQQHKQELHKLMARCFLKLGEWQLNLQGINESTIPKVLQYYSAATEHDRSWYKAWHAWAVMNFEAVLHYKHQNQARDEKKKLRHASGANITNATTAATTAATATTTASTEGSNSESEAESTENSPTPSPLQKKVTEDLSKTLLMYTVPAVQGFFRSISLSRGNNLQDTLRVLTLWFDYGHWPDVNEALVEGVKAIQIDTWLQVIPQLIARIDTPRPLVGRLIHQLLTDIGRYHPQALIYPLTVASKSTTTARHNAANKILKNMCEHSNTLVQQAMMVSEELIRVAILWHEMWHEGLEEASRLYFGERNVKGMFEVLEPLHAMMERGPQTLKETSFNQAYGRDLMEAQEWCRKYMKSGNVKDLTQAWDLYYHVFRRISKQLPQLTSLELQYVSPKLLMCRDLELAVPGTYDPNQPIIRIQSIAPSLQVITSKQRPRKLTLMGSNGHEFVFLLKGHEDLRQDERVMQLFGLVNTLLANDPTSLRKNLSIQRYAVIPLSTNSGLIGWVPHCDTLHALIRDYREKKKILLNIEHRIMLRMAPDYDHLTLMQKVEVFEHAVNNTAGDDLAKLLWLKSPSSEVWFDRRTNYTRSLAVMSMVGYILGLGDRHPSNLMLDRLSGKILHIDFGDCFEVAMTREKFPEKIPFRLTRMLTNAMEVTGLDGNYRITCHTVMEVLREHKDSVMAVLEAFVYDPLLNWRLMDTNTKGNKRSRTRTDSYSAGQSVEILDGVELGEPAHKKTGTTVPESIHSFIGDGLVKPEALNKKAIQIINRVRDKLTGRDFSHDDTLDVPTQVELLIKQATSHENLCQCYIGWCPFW

SMILES | IC50 [1] | EC50 [2]
CC(=O)Nc1nc2c(s1)-c1c(c(-c3ccc(N)nc3)nn1-c1ccccc1C)CCC2 [Example B-61, N-[3-(6-Amino-pyridin-3-yl)-1-o-tolyl-1,4,5,6-tetrahydro-9-thia-1,2,7-triaza-cyclopenta[e]azulen-8-yl]-acetamide] | 0.015 µM | 0.069 µM
CNC(=O)Nc1nc2c(s1)-c1c(c(-c3ccc(NC)nc3)nn1-c1cccnc1C)CCC2 [Example B-143, 1-Methyl-3-[3-(6-methylamino-pyridin-3-yl)-1-(2-methyl-pyridin-3-yl)-1,4,5,6-tetrahydro-9-thia-1,2,7-triaza-cyclopent[e]azulen-8-yl]-urea] | 0.071 µM | 0.424 µM
CNc1ccc(-c2nn(-c3ccccc3F)c3c2CCCc2nc(NC(C)=O)sc2-3)cn1 [Example B-81, N-[1-(2-Fluoro-phenyl)-3-(6-methylamino-pyridin-3-yl)-1,4,5,6-tetrahydro-9-thia-1,2,7-triaza-cyclopenta[e]azulen-8-yl]-acetamide] | 0.041 µM | 0.023 µM
CCNc1ccc(-c2nn(-c3ccccc3C)c3c2CCCc2nc(NC(=O)CNC)sc2-3)cn1 [Example B-69] | 0.145 µM | 0.229 µM
COCCn1nc(-c2ccc(N)nc2)c2c1-c1sc(NC(=O)N(C)C)nc1CCC2 [Example B-51] | 0.187 µM | 0.523 µM
CCNc1ccc(-c2nn(-c3ccccc3C)c3c2CCCc2nc(NC(C)=O)sc2-3)cn1 [Example B-07, N-[3-(6-Ethylamino-pyridin-3-yl)-1-o-tolyl-1,4,5,6-tetrahydro-9-thia-1,2,7-triaza-cyclopenta[e]azulen-8-yl]-acetamide] | 0.055 µM | 0.128 µM
CNc1ccc(-c2nn(C3CCCOC3)c3c2CCCc2nc(NC(C)=O)sc2-3)cn1 (stereo not drawn) [Example B-83, N-[3-(6-Methylamino-pyridin-3-yl)-1-(tetrahydro-pyran-3-yl)-1,4,5,6-tetrahydro-9-thia-1,2,7-triaza-cyclopenta[e]azulen-8-yl]-acetamide] | 0.065 µM | 0.041 µM
CNc1ccc(-c2nn(C(C)C)c3c2CCCc2nc(NC(=O)N(C)C)sc2-3)cn1 [Example B-27] | 0.501 µM | 0.328 µM
CCNc1ccc(-c2nn(-c3ccccc3C)c3c2CCCc2nc(NC(=O)NC)sc2-3)cn1 [Example B-68] | 0.166 µM | 0.604 µM
COCCn1nc(-c2ccc(N)nc2)c2c1-c1sc(NC(C)=O)nc1CCC2 [Example B-132, N-[3-(6-Amino-pyridin-3-yl)-1-(2-methoxy-ethyl)-1,4,5,6-tetrahydro-9-thia-1,2,7-triaza-cyclopenta[e]azulen-8-yl]-acetamide] | 0.052 µM | 0.326 µM
CC(=O)Nc1nc2c(s1)-c1c(c(-c3c[nH]cn3)nn1-c1ccccc1Cl)CCC2 [Example B-116] | 0.029 µM | 0.148 µM
CCn1nc(-c2ccc(N)nc2)c2c1-c1sc(NC(C)=O)nc1CCC2 [Example B-130, N-[3-(6-Amino-pyridin-3-yl)-1-ethyl-1,4,5,6-tetrahydro-9-thia-1,2,7-triaza-cyclopenta[e]azulen-8-yl]-acetamide] | 0.019 µM | 0.178 µM
COCC(=O)Nc1nc2c(s1)-c1c(c(-c3ccc(N)nc3)nn1-c1ccccc1F)CCC2 [Example E-18, N-[3-(6-Amino-pyridin-3-yl)-1-(2-fluoro-phenyl)-1,4,5,6-tetrahydro-9-thia-1,2,7-triaza-cyclopenta[e]azulen-8-yl]-2-methoxy-acetamide] | 0.059 µM | 0.087 µM
CCNc1ccc(-c2nn(-c3ccncc3C)c3c2CCCc2nc(NC(C)=O)sc2-3)cn1 [Example B-77, N-[3-(6-Ethylamino-pyridin-3-yl)-1-(3-methyl-pyridin-4-yl)-1,4,5,6-tetrahydro-9-thia-1,2,7-triaza-cyclopenta[e]azulen-8-yl]-acetamide] | 0.034 µM | 0.126 µM
CC(=O)Nc1nc2c(s1)-c1c(c(-c3c[nH]cn3)nn1-c1ccccc1C)CCC2 [Example B-112, N-[3-(1H-imidazol-4-yl)-1-o-tolyl-1,4,5,6-tetrahydro-9-thia-1,2,7-triaza-cyclopenta[e]azulen-8-yl]-acetamide] | 0.039 µM | 0.11 µM
COCCC(=O)Nc1nc2c(s1)-c1c(c(-c3ccc(N)nc3)nn1-c1ccccc1C)CCC2 [Example B-103, N-[3-(6-Amino-pyridin-3-yl)-1-o-tolyl-1,4,5,6-tetrahydro-9-thia-1,2,7-triaza-cyclopenta[e]azulen-8-yl]-3-methoxy-propionamide] | 0.037 µM | 0.087 µM
CC(=O)Nc1nc2c(s1)-c1c(c(-c3c[nH]c(C)n3)nn1-c1ccccc1C)CCC2 [Example B-120, N-[3-(2-Methyl-1H-imidazol-4-yl)-1-o-tolyl-1,4,5,6-tetrahydro-9-thia-1,2,7-triaza-cyclopenta[e]azulen-8-yl]-acetamide] | 0.065 µM | 0.25 µM
CNc1ccc(-c2nn(-c3cccnc3C)c3c2CCCc2nc(NC(C)=O)sc2-3)cn1 [Example B-139, N-[3-(6-Methylamino-pyridin-3-yl)-1-(2-methyl-pyridin-3-yl)-1,4,5,6-tetrahydro-9-thia-1,2,7-triaza-cyclopent[e]azulen-8-yl]acetamide] | 0.021 µM | 0.071 µM
CNc1ccc(-c2nn(CCOC)c3c2CCCc2nc(NC(C)=O)sc2-3)cn1 [Example B-03, N-[1-(2-Methoxy-ethyl)-3-(6-methylamino-pyridin-3-yl)-1,4,5,6-tetrahydro-9-thia-1,2,7-triaza-cyclopenta[e]azulen-8-yl]-acetamide] | 0.087 µM | 0.263 µM
CNc1ccc(-c2nn(CC(C)C)c3c2CCCc2nc(NC(C)=O)sc2-3)cn1 [Example B-86, N-[1-isobutyl-3-(6-methylamino-pyridin-3-yl)-1,4,5,6-tetrahydro-9-thia-1,2,7-triaza-cyclopenta[e]azulen-8-yl]-acetamide] | 0.032 µM | 0.047 µM
COCCC(=O)Nc1nc2c(s1)-c1c(c(-c3ccc(N)nc3)nn1-c1ccccc1F)CCC2 [Example E-15, N-[3-(6-Amino-pyridin-3-yl)-1-(2-fluoro-phenyl)-1,4,5,6-tetrahydro-9-thia-1,2,7-triaza-cyclopenta[e]azulen-8-yl]-3-methoxy-propionamide] | 0.047 µM | 0.138 µM
CNc1ccc(-c2nn(-c3ccccc3C)c3c2CCCc2nc(NC(C)=O)sc2-3)cn1 [Example B-06, N-[3-(6-Methylamino-pyridin-3-yl)-1-o-tolyl-1,4,5,6-tetrahydro-9-thia-1,2,7-triaza-cyclopenta[e]azulen-8-yl]-acetamide] | 0.036 µM | 0.066 µM
C=CCn1nc(-c2ccc(NC)nc2)c2c1-c1sc(NC(=O)N(C)C)nc1CCC2 [Example B-47] | 0.734 µM | 0.703 µM
CC(=O)Nc1nc2c(s1)-c1c(c(-c3ccc(N)nc3)nn1C(C)C)CCC2 [Example B-66, N-[3-(6-Amino-pyridin-3-yl)-1-isopropyl-1,4,5,6-tetrahydro-9-thia-1,2,7-triaza-cyclopenta[e]azulen-8-yl]-acetamide] | 0.012 µM | 0.09 µM
CC(=O)Nc1nc2c(s1)-c1c(c(-c3c[nH]cn3)nn1CC(C)C)CCC2 [Example B-113] | 0.009 µM | 0.029 µM
CNc1ccc(-c2nn(C3CCN(C4CC4)CC3)c3c2CCCc2nc(NC(=O)N(C)C)sc2-3)cn1 [Example B-57] | 0.07 µM | 0.147 µM
CC(=O)Nc1nc2c(s1)-c1c(c(-c3ccc(N)nc3)nn1-c1ccccc1Cl)CCC2 [Example B-64, N-[3-(6-Amino-pyridin-3-yl)-1-(2-chloro-phenyl)-1,4,5,6-tetrahydro-9-thia-1,2,7-triaza-cyclopenta[e]azulen-8-yl]-acetamide] | 0.009 µM | 0.082 µM
CNc1ccc(-c2nn(-c3ccccc3C)c3c2CCCc2nc(NC(=O)OC)sc2-3)cn1 [Example B-50, [3-(6-Methylamino-pyridin-3-yl)-1-o-tolyl-1,4,5,6-tetrahydro-9-thia-1,2,7-triaza-cyclopenta[e]azulen-8-yl]-carbamic acid methyl ester] | 0.03 µM | 0.209 µM
CC(C)n1nc(-c2ccc(N)nc2)c2c1-c1sc(NC(=O)N(C)C)nc1CCC2 [Example B-29] | 0.2 µM | 0.276 µM
CNc1ccc(-c2nn(-c3ccccc3Cl)c3c2CCCc2nc(NC(C)=O)sc2-3)cn1 [Example B-28, N-[1-(2-Chloro-phenyl)-3-(6-methylamino-pyridin-3-yl)-1,4,5,6-tetrahydro-9-thia-1,2,7-triaza-cyclopenta[e]azulen-8-yl]-acetamide] | 0.05 µM | 0.07 µM
